The source made the active and inactive calls. No cut-off for these calls is given here.
Experiments:
[1] = tested on: HCT-116; assay: Cell cycle arrest in human HCT116 cells assessed as accumulation at S phase at 5 uM after 24 hrs by propidium iodide staining-based FACS analysis (reference value: 39 +/- 0.2 %); format: functional
[2] = tested on: HCT-116; assay: Cell cycle arrest in human HCT116 cells assessed as accumulation at G2/M phase at 5 uM after 24 hrs by propidium iodide staining-based FACS analysis (reference value: 28 +/- 1 %); format: functional
[3] = tested on: HCT-116; assay: Cytotoxicity against human HCT116 cells after 72 hrs by MTT assay; format: functional, cell-based; settings: HCT-116, 72 h
[4] = tested on: HCT-116; assay: Cell cycle arrest in human HCT116 cells assessed as accumulation at S phase at 0.5 uM after 24 hrs by propidium iodide staining-based FACS analysis (reference value: 39 +/- 0.2 %); format: functional
[5] = Binding affinity to DNA (unknown origin) at 1 to 5 uM after 15 mins by DNA footprinting assay
[6] = tested on: HCT-116; assay: Cell cycle arrest in human HCT116 cells assessed as accumulation at G2/M phase at 5 uM after 48 hrs by propidium iodide staining-based FACS analysis (reference value: 31 +/- 0.1 %); format: functional
[7] = tested on: HCT-116; assay: Cell cycle arrest in human HCT116 cells assessed as accumulation at subG0/G1 phase at 5 uM after 48 hrs by propidium iodide staining-based FACS analysis (reference value: 4 +/- 1 %); format: functional
[8] = tested on: HCT-116; assay: Cell cycle arrest in human HCT116 cells assessed as accumulation at subG0/G1 phase at 5 uM after 24 hrs by propidium iodide staining-based FACS analysis (reference value: 4 +/- 1 %); format: functional
[9] = tested on: Calf thymus DNA; assay: Binding affinity to calf thymus DNA assessed as DNA intercalation at 1 to 50 uM by circular dichroism analysis; format: nucleic-acid assay; settings: Bos taurus
[10] = tested on: MCF7; assay: Cytotoxicity against human MCF7 cells after 72 hrs by MTT assay; format: functional, cell-based; settings: MCF7, 72 h
[11] = tested on: HCT-116; assay: Cell cycle arrest in human HCT116 cells assessed as accumulation at G1 phase at 5 uM after 24 hrs by propidium iodide staining-based FACS analysis (reference value: 33 +/- 1 %); format: functional
[12] = tested on: HCT-116; assay: Cell cycle arrest in human HCT116 cells assessed as accumulation at S phase at 0.5 uM after 48 hrs by propidium iodide staining-based FACS analysis (reference value: 32 +/- 1 %); format: functional
[13] = tested on: HCT-116; assay: Cell cycle arrest in human HCT116 cells assessed as accumulation at S phase at 5 uM after 48 hrs by propidium iodide staining-based FACS analysis (reference value: 32 +/- 1 %); format: functional
[14] = tested on: Calf thymus DNA; assay: Binding affinity to calf thymus DNA assessed as change in melting temperature at 0.5 drug/DNA ratio by spectrophotometry; format: nucleic-acid assay; settings: Bos taurus
[15] = Drug uptake in human H460 cell perinuclear region at 10 uM after 2 hrs by fluorescence microscopy; format: ADME, cell-based; settings: h460, 2 h
[16] = tested on: HCT-116; assay: Cell cycle arrest in human HCT116 cells assessed as accumulation at G1 phase at 0.5 uM after 24 hrs by propidium iodide staining-based FACS analysis (reference value: 33 +/- 1 %); format: functional
[17] = tested on: HCT-116; assay: Cell cycle arrest in human HCT116 cells assessed as accumulation at G2/M phase at 0.5 uM after 24 hrs by propidium iodide staining-based FACS analysis (reference value: 28 +/- 1 %); format: functional
[18] = tested on: HCT-116; assay: Cell cycle arrest in human HCT116 cells assessed as accumulation at subG0/G1 phase at 0.5 uM after 48 hrs by propidium iodide staining-based FACS analysis (reference value: 4 +/- 1 %); format: functional
[19] = tested on: HCT-116; assay: Cell cycle arrest in human HCT116 cells assessed as accumulation at G1 phase at 0.5 uM after 48 hrs by propidium iodide staining-based FACS analysis (reference value: 37 +/- 2 %); format: functional
[20] = tested on: Escherichia coli; assay: Binding affinity to Escherichia coli pUC19 plasmid assessed as nicked DNA at 0.1 to 5 uM by ethidium bromide staining-based agarose gel electrophoresis
[21] = tested on: Escherichia coli; assay: Binding affinity to Escherichia coli pUC19 plasmid assessed as induction of topoisomerase1-mediated DNA relaxation at 2 uM incubated for 45 mins prior to topoisomerase1 addition by agarose gel electrophoresis
[22] = Drug uptake in human H460 cell cytoplasm at 10 uM after 2 hrs by fluorescence microscopy; format: ADME, cell-based; settings: h460, 2 h
[23] = tested on: HCT-116; assay: Cell cycle arrest in human HCT116 cells assessed as accumulation at G1 phase at 5 uM after 48 hrs by propidium iodide staining-based FACS analysis (reference value: 37 +/- 2 %); format: functional
[24] = tested on: Calf thymus DNA; assay: Binding affinity to calf thymus DNA assessed as hypochromic shift at 20 uM by UV/visible spectrophotometry; format: nucleic-acid assay; settings: Bos taurus
[25] = tested on: Calf thymus DNA; assay: Binding affinity to calf thymus DNA assessed as bathochromic shift at 20 uM by UV/visible spectrophotometry; format: nucleic-acid assay; settings: Bos taurus
[26] = tested on: DNA; assay: Induction of DNA damage in plasmid DNA in E. coli S30 cell-free system assessed as inhibition of EGFP translation at 50 uM after 1 hr by fluorescence assay
[27] = target: T1, DNA topoisomerase 1 (Homo sapiens) (UniProt P11387); assay: Inhibition of human DNA topoisomerase 1 assessed as inhibition of DNA cleavage
T1 sequence (whole entry): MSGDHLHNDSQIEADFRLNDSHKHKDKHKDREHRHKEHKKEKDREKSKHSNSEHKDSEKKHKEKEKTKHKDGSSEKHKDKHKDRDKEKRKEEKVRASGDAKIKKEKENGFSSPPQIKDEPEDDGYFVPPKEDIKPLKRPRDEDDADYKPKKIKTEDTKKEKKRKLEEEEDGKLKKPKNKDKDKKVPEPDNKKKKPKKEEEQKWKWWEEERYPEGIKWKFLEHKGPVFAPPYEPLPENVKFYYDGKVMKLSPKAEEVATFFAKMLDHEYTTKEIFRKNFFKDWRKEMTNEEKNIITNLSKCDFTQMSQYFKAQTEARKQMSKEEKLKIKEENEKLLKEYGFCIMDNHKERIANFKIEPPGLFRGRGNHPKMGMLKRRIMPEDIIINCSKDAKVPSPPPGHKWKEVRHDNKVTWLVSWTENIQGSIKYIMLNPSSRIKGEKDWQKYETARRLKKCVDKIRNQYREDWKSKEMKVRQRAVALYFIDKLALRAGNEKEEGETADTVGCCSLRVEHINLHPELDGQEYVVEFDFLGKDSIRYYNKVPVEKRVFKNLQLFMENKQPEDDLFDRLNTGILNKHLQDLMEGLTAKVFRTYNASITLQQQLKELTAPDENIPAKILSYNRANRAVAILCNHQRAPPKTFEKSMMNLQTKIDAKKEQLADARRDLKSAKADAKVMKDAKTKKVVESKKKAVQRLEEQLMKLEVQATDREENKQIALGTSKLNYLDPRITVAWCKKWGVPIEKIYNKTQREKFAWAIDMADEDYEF

[28] = Cytotoxicity against human H460 cells after 72 hrs by MTT assay; format: functional, cell-based; settings: NCI-H460, 72 h
[29] = organism: Homo sapiens; assay: Inhibition of human DNA topoisomerase 2 assessed as inhibition of DNA cleavage
[30] = tested on: HCT-116; assay: Cell cycle arrest in human HCT116 cells assessed as accumulation at G2/M phase at 0.5 uM after 48 hrs by propidium iodide staining-based FACS analysis (reference value: 31 +/- 0.1 %); format: functional
[31] = tested on: HCT-116; assay: Cell cycle arrest in human HCT116 cells assessed as accumulation at subG0/G1 phase at 0.5 uM after 24 hrs by propidium iodide staining-based FACS analysis (reference value: 4 +/- 1 %); format: functional

- Activity [5]: Active
- Activity [9]: Active
- ΔTm [14]: 15.4 °C
- Drug uptake [15]: Active
- Activity [20]: Active
- Activity [21]: Active
- Drug uptake [22]: Active
- Activity [24]: Active
- Activity [25]: Active
- Activity [27]: inactive
- Activity [29]: inactive
Compound: C[N+]1(C)CCN(c2ccc3cc(C#N)c4nc5ccccc5n4c3c2)CC1.[I-]
- Activity [1]: 33%
- Activity [2]: 29%
- IC50 [3]: 600 nM
- Activity [4]: 36%
- Activity [6]: 28%
- Activity [7]: 5%
- Activity [8]: 7%
- IC50 [10]: 2400 nM
- Activity [11]: 38%
- Activity [12]: 32%
- Activity [13]: 29%
- Activity [16]: 32%
- Activity [17]: 32%
- Activity [18]: 6%
- Activity [19]: 37%
- Activity [23]: 43%
- inhibition at 50 µM [26]: 45%
- IC50 [28]: 2000 nM
- Activity [30]: 31%
- Activity [31]: 6%
